Reference: patent publication US8546590B2, “Polar dyes” (Cepheid, priority 2005, dated 2013)

Legend:
[1] = Degradation/deprotection of arsonate ester-protected dye in aqueous buffers (Method G, HPLC); assay type: physicochemical; settings: for stability in aqueous buffers: range of pH 1.6-7.5 in aqueous buffers
Procedure: (§1) Measuring of Degradation/Deprotection Rate of Arsonate Esters-protected Dye.
(§2) A protected dye (1 mg) and Methyl Red dye (0.5 mg, internal standard, λmax 482 nm) were dissolved in MeOH (5 mL) and mixed with a buffer or 25% aqueous ammonia (45 mL). Samples (1 mL) were taken over a period of degradation. The samples were quickly placed under vacuum to remove ammonia and redissolved in MeOH or used directly for HPLC analysis in buffers in a range of pH 1.6 (0.1% trifluoroacetic acid)-7.5 (0.1 M triethylammonium acetate). HPLC analysis was performed on Phenomenex Gemini 5 um C18 110A column (250×4.6 mm) using 0-100% gradient of MeCN in 0.1M triethylammonium acetate (pH 7.5) buffer. The chromatogram was detected in a range 200-600 nm using Varian ProStar PDA detector. Calculations of the relative concentrations were performed based on peaks area at 520 nm. An internal standard gives a peak at 8.6 min (λmax 482 nm).

[2] = Degradation/deprotection of arsonate ester-protected dye in 25% aqueous ammonia (Method G, HPLC); assay type: physicochemical
Procedure: as §1, §2
FIG. 12 illustrates an example of a typical kinetic curve corresponding to the base-induced deprotection of a bis-pinacol protected azodye.

[3] = 25% aqueous ammonia, room temperature

Compound | stability in aqueous buffers [1] | stability / degradation in 25% aqueous ammonia ([2]; 25% aqueous ammonia) | Rate of degradation (τ1/2) [2, 3] | Rate of full degradation (τ1/2) [2, 3] | time after which practically full deprotection was observed [2, 3] [h] | degradation in acidic conditions ([1]; acidic conditions, aqueous buffers) | time after which practically full deprotection was observed ([1]; buffer, room temperature, pH 7.5) [h] | degradation at pH 7.5 ([1]; pH 7.5 aqueous buffer) | Rate of full degradation (τ1/2) ([1]; room temperature and pH 7.5 buffer) | degradation of the compound observed ([2]; over 3 days period, 25% aqueous ammonia at room temperature (and pH 1.6-7.5 buffers))
CN(C)c1ccc(N=Nc2ccc([As]34(OC(C)(C)C(C)(C)O3)OC(C)(C)C(C)(C)O4)cc2)cc1 [Example 11, [4-(4′-Dimethylaminophenylazo)phenyl]arsonic acid bis-pinacolate] | stable | degrades | approximately 3 hr |  |  |  |  |  |  | 
CN(C)c1ccc(N=Nc2ccc([As]3(=O)OC(C)(C)CC(C)(C)O3)cc2)cc1 [Example 12, [4-(4′-Dimethylaminophenylazo)phenyl]arsonic acid 2,4-dimethyl-2,4-pentanediol chelate] | relatively stable | degrades quickly |  | approximately 15 min | 4 |  |  |  |  | 
CN(C)c1ccc(N=Nc2ccc([As]3(=O)OC(=O)C(C)(C)O3)cc2)cc1 (stereo not drawn) [Example 13, [4-(4′-Dimethylaminophenylazo)phenyl]arsonic acid, chelate with 2-hydroxy-isobutyric acid] | very unstable |  |  |  |  | degrades instantly | 2 | within minutes | approximately 10 min | 
CN(C)c1ccc(N=Nc2ccc([As]34(Oc5ccccc5O3)Oc3ccccc3O4)cc2)cc1 [Example 14, [4-(4′-Dimethylaminophenylazo)phenyl]arsonic acid bis-catechol chelate] | very stable | very stable |  |  |  |  |  |  |  | No degradation
